The record followed here is US11292002B2, “Surfactant additives for digital microfluidic devices for high protein content droplets transport” (THE GOVERNING COUNCIL OF THE UNIVERSITY OF TORONTO, priority 2016, dated 2022).

The target of the data set is BSA (Bos taurus, UniProt P02769). Briefly: Circular dichroism (CD) spectra of BSA with surfactant. The settings on record: 0.1 g·L^−1 BSA; 1, 2, 2.5, 4, or 6 mM SDS. It counts as physicochemical, bovine. The text has this:
Resolution of CD is ±0.1 degree.
Surfactant-protein complexation is often associated with molecular rearrangement of the protein (i.e., change in protein conformation). […] Protein conformation changes can be probed using circular dichroism (CD) experiments, as illustrated in FIG. 5.
On the technique in general: CD spectra are sensitive to the conformation of chiral molecules.

Sequence of BSA (P02769 25-607): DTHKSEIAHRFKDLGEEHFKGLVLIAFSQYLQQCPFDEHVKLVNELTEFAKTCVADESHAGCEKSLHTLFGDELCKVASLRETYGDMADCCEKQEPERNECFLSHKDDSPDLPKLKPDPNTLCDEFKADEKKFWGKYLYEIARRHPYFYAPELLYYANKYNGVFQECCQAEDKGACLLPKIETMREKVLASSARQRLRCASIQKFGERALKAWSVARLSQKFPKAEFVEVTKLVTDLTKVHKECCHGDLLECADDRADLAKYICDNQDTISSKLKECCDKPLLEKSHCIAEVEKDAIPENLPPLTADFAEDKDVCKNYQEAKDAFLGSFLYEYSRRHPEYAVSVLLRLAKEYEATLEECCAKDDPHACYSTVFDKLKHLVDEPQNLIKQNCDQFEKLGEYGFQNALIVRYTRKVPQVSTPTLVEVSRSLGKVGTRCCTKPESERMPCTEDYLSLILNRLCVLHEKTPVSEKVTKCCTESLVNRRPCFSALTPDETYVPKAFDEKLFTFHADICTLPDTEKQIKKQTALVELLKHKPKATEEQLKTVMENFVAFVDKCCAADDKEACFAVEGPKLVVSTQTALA

In the case of `CCCCCCCCCCCCOS(=O)(=O)[O-].[Na+]` [SDS, sodium dodecyl sulfate], the “CD spectrum of BSA with surfactant compared with BSA alone” value was “distinctly different CD spectrum”.
